From patent US10543202B2 (University of Saskatchewan, priority 2017, dated 2020)
“Also recorded” adds a separate entry of the source.

Assays:
Type in all cases: physicochemical
[1] = Mass spectrometry analysis of nifedipine and its photodegradants in UVA-exposed creams
From the text: (§1) Light Exposure: A UVA lamp was mounted 8.5 inches above a lab bench surface and the flux set to 740-750 μW/cm^2. This level of flux is roughly equivalent to a bright sunny day in mid-summer. […] The lamp apparatus was placed inside an enclosure with an access door, to prevent ambient light entering and for worker safety. For samples exposed to “ambient light”, these were placed on a laboratory bench where standard fluorescent lighting was used. […] To prevent drying, the samples were covered with Saran Wrap®, a plastic film that was determined to be UVA-transparent. After the allotted exposure time the cream was scraped off the slide for extraction with methanol. Samples which were exposed while in solution and not incorporated in a cream were dissolved in methanol as a 20 mL solution in a 100 mL beaker.

[2] = Thin film of cream exposed to UVA light (photostability); conditions: for effect of photostabilizer in nifedipine emulsion on stability of nifedipine to UVA light: photostabilizer incorporated at varying concentrations up to 3% w/w in nifedipine 2% w/w cream
From the text: as §1
The sample was warmed in a water bath to 85° C. to melt lipids, followed by addition of 5 mL of methanol and vortex mixing. The samples were centrifuged at 14,000×g for 5 minutes and the supernatant retained for analysis.
Values reported represent mean±SD for triplicate measurements.

[3] = Emulsion phase stability analysis (LUMiSizer photocentrifuge, instability index); conditions: photocentrifuge 42° C., 12 hrs, versus emulsion without photostabilizers
Procedure: This allows for an approximation of the relative stability to phase separation of emulsions that differ in the type or percentage of photoprotectant and for confirming batch-to-batch consistency in stability against phase separation.^35 For each sample type, triplicate samples of 2 mL were loaded into photocentrifuge acrylic cuvettes. The samples were centrifuged at 42° C.×12 hrs. Phase separation was detected as an increase in light transmission at the top of the sample, which is interpreted as an “instability index” reflecting the rate of change of light transmission.

Row | Compound | alternative nifedipine degradation pathways in presence of photostabilizer [1] | difference in nifedipine concentration between preparations with and without rutin ([2]; 2 h UVA exposure) | effectiveness as photoprotectant for nifedipine in O/W emulsion ([2]; concentrations up to 2% (w/w)) | effect of photostabilizer in nifedipine emulsion on stability of nifedipine to UVA light [2] | reduction of UVA-induced degradation of nifedipine ([2]; rutin 0.5-3% (w/w), 20 mg thin film, over 3 hrs) | effect of photostabilizer on instability index / phase stability of nifedipine emulsion [3] | effect of quercetin on photostability of nifedipine cream after UVA exposure ([2]; quercetin 0.5% w/w alone in nifedipine cream)
1 | C[C@@H]1O[C@@H](OC[C@H]2O[C@@H](Oc3c(-c4ccc(O)c(O)c4)oc4cc(O)cc(O)c4c3=O)[C@H](O)[C@@H](O)[C@@H]2O)[C@H](O)[C@H](O)[C@H]1O [rutin, 2-(3,4-dihydroxyphenyl)-5,7-dihydroxy-4-oxo-4H-chromen-3-yl 6-O-(6-deoxy-α-L-mannopyranosyl)-β-D-glucopyranoside] | no alternative degradation pathways identified | No significant difference | ineffective | not protected from photodegradation; also recorded: not effective | did not significantly reduce UVA-induced degradation of nifedipine | – | –
2 | O=c1c(O)c(-c2ccc(O)c(O)c2)oc2cc(O)cc(O)c12 [quercetin, 2-(3,4-dihydroxyphenyl)-3,5,7-trihydroxy-4H-chromen-4-one] | no alternative degradation pathways identified | – | – | increased the stability of nifedipine to UVA light | – | reduced the instability; also recorded: increased the stability of the nifedipine emulsion | moderately effective; also recorded: photostability was improved
3 | COc1ccc(C(=O)CC(=O)c2ccc(C(C)(C)C)cc2)cc1 [BMDBM, 1-(4-methoxyphenyl)-3-[4-(2-methyl-2-propanyl)phenyl]-1,3-propanedione] | no alternative degradation pathways identified | – | – | moderately effective | – | reduced the instability; also recorded: increased the stability of the nifedipine emulsion | –
